Earlier results on two molecules are cited in patent US7632837B2, “Bicyclic heterocycles as cannabinoid-1 receptor modulators” (Bristol-Myers Squibb Company, priority 2005, dated 2009).

SMILES strings stand for the structures.

For series [1] the following is noted: chronic administration for two weeks.
The conditions of series [2]: 16 week trial period; published Phase IIb data.

Regarding `Cc1c(C(=O)NN2CCCCC2)nn(-c2ccc(Cl)cc2Cl)c1-c1ccc(I)cc1` [AM-251], in series [1], the body weight result is recorded as “substantial body weight reduction”.

`Cc1c(C(=O)NN2CCCCC2)nn(-c2ccc(Cl)cc2Cl)c1-c1ccc(Cl)cc1` [SR-141716]: in series [2], the “body weight in human subjects” value is “dose-dependently reduced body weight”.
